Assays:
ANGPTL3 Protein [1] = assay: PHH free uptake, inhibition of ANGPTL3, ELISA of supernatant; format: cell-based; settings: primary human hepatocytes, 72 hours
Procedure: PHH cells were thawed and adjusted to a density of 6×10^5 cells/mL. Then, 10 µL of the compound from the dilution plate was added to the cell culture plate, resulting in final compound concentrations of 100, 40, 12.5, 5, and 2 nM. The cells were seeded into a 96-well plate at a density of 54,000 cells per well (90 µL/well), with a final culture volume of 100 µL per well. The cells were cultured in a 5% CO2 incubator at 37°C for 72 hours.
(§1) The supernatant from the PHH and PCH cultures from the previous steps was collected, transferred to a new 96-well V-bottom plate, and centrifuged. Human Angiopoietin-like 3 protein (hANGPTL3 protein; DANL30) ELISA test was performed according to the instructions of HANGPTL 3 protein Kit.
(§2) Data Analysis: Four Parameter Logistic method. This method constructs a standard curve by plotting, with the y-axis as the average absorbance of the standards and the x-axis as the concentration, drawing a best-fit curve through the points on the graph. The OD value of the log concentration of the sample's HANGPTL3 protein is determined against the best-fit line of the log concentration by regression analysis. [formula]
(§3) Sequences with good activity in Table 8 were evaluated for in vitro inhibitory activity against ANGPTL3 Protein in primary human hepatocytes (PHH) and primary cynomolgus monkey hepatocytes (PCH). Table 10. In Vitro Inhibitory Activity of MCPP-siRNAs against ANGPTL3 mRNA in PHH Cell Line

ANGPTL3 [2] = assay: In vivo efficacy of ANGPTL3 GalNAc-siRNA in HFD-induced hyperlipidemic cynomolgus monkeys; settings: single subcutaneous injection, normalized to pre-treatment, Fig. 2
Procedure: To evaluate the in vivo activity of siRNA against ANGPTL3, 6 HFD-induced hyperlipidemic cynomolgus monkeys were used for the experiment. Pre-dose serum samples were obtained after a 4-hour fast on days -7 and -14. The siRNA conjugate was diluted with saline and administered subcutaneously according to the experimental design on day 0. Blank saline was used as a negative control. Plasma was collected after a 4-hour fast on days 0, 7, 14, 28, 42, 49, and 56. Serum triglycerides were detected using an automatic biochemical analyzer.
The ANGPTL3 protein levels and triglyceride levels for each animal were normalized. For normalization, at a given time point, the ANGPTL3 protein and triglyceride levels of each animal were divided by the pre-treatment expression level of that animal (the average of the pre-experiment samples for that group) to determine the change in "normalization to pre-treatment".

ANGPTL3 Protein [3] = assay: PCH free uptake, inhibition of ANGPTL3, ELISA of supernatant; format: cell-based; settings: primary cynomolgus monkey hepatocytes, 72 hours
Procedure: PCH cells were resuscitated using 10% FBS InvitroGRO™ HT Medium, and subsequently, the cell density was adjusted to 3×10^5 cells/mL using 10% FBS InvitroGRO™ CP Medium. Then, 10 µL of the compound from the dilution plate was added to the cell culture plate, resulting in final compound concentrations of 25, 5, and 1 nM. The cells were seeded into a 96-well plate at a density of 27,000 cells per well (90 µL/well), with a final culture volume of 100 µL per well. The cells were cultured in a 5% CO2 incubator at 37 °C for 72 hours.
as §1, §2, §3

ANGPTL3 [4] = assay: In vivo efficacy of ANGPTL3 GalNAc-siRNAs in hANGPTL3 humanized mice; settings: 3 mg/kg subcutaneous on day 0; days 7, 14, 21, 28; normalized to day -1; compared to the control; Fig. 1
Procedure: To evaluate the in vivo efficacy of siRNA against ANGPTL3 in mice, female ANGPTL3 humanized mice (purchased from Shanghai Model Organisms Center, Inc.) were used for in vivo efficacy testing. Mice were randomly divided into 5 groups, with 5 mice per group: G1, Control (PBS) negative control group; G2, 2002-034-001 (3 mg/kg) treatment group; G3, 2008-010-001 (3 mg/kg) treatment group; G4, 2008-019-001 (3 mg/kg) treatment group; and G5, 2008-019-002 (3 mg/kg) treatment group.
On days -7 and -1, pre-dose plasma samples were obtained after a 4-hour fast. The above siRNA conjugates were diluted with saline and administered subcutaneously to the mice according to body weight on day 0. Plasma was collected after a 4-hour fast on days 7, 14, 21, and 28, respectively. The ANGPTL3 protein level in plasma was detected by ELISA (R&D Systems). Plasma triglycerides (TG), total cholesterol (CHO), high-density lipoprotein cholesterol (HDL-c), low-density lipoprotein cholesterol (LDL-c), alanine aminotransferase (ALT), and aspartate aminotransferase (AST) were tested by Shanghai Bikai Keyi Biotechnology Co., Ltd.
To evaluate the in vivo efficacy of the siRNAs against ANGPTL3 in mice, female ANGPTL3 humanized mice (purchased from Shanghai Model Organisms Center, Inc.) were used for the efficacy study. The mice were randomly allocated into five groups (n=5 per group) as follows: • G1: Control (PBS) negative control group; • G2: 2002-034-001 (3 mg/kg) treatment group; • G3: 2008-010-001 (3 mg/kg) treatment group; • G4: 2008-019-001 (3 mg/kg) treatment group; • G5: 2008-019-002 (3 mg/kg) treatment group.
The day of the first administration was designated as day 0. Accordingly, the day before administration was designated as day -1, and the day after administration as day 1.
On day -7, all mice were fasted for 4 hours, and mandibular blood was collected to obtain plasma for hANGPTL3 protein detection. […]
On day -1, pre-dose plasma samples were obtained after a 4-hour fast. […] The ANGPTL3 protein level in plasma was detected by ELISA (R&D Systems). […]

2008-010-001: GalNAc-conjugated modified ANGPTL3 siRNA, sense SEQ ID NO 40 (3'-YHZY12001), antisense SEQ ID NO 27 (sense GAGAAGAACUACAUAUAAA; antisense UUUAUAUGUAGUUCUUCUCAG; GalNAc conjugate YHZY12001 at sense 3', chemistry not fully specified) [Duplex 2008-010-001]
IC50 (ANGPTL3 Protein [1]): 0.81 nM
serum ANGPTL3 protein level (ANGPTL3 [2]): significantly inhibited
triglyceride level (ANGPTL3 [2]; serum): significantly reduced
Average Inhibition in PCH % (ANGPTL3 Protein [3]; 1nM): 62.75%
Average Inhibition in PCH % (ANGPTL3 Protein [3]; 5nM): 74.73%
Average Inhibition in PCH % (ANGPTL3 Protein [3]; 25nM): 78.39%
level of ANGPTL3 protein in the plasma (ANGPTL3 [4]): significantly reduced
level of total cholesterol (CHO) in the plasma (ANGPTL3 [4]): significantly reduced
level of triglycerides (TG) in the plasma (ANGPTL3 [4]): significantly reduced

Source: EP4722363A1, “RNAI AGENT FOR INHIBITING ANGPTL3 EXPRESSION AND USE THEREOF” (YUN HO BIO CO., LTD, priority 2023, dated 2024)
